{"source": "patent US8962843B2", "about": "“1,3,4-oxadiazole and 1,3,4-thiadiazole beta-lactamase inhibitors” (priority 2012, dated 2015)", "key": {"[1]": {"system": "bacterial strains that express the class D cephalosporinase OXA-15", "assay": "Standard BLI potentiation MIC / synergy MIC assays, strains expressing OXA-15", "assay_type": "cell-based, E. coli", "details": "in combination with a β-lactam; comparator Avibactam (CCC)", "how_it_was_run": "(§1)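 Broth microdilution in cation-adjusted Mueller Hinton broth per CLSI M07-A9, ~10^5 CFU/mL, 18-20 h at 37 °C with aeration; engineered E. coli carrying β-lactamase plasmids kept on 25 μg/mL tetracycline. β-lactam MIC measured in 2-fold dilutions (128-0.13 μg/mL) with BLI fixed at 4 μg/mL; sMIC titrates BLI against a fixed β-lactam concentration. MIC = lowest concentration without visible turbidity.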"}, "[2]": {"system": "bacterial strains that express KPC β-lactamases", "assay": "Standard BLI potentiation MIC / synergy MIC assays, strains expressing KPC β-lactamases", "assay_type": "cell-based", "details": "in combination with a β-lactam; comparator Avibactam", "how_it_was_run": "as §1"}}, "note": "Counter-ions that a name gives are not always drawn."}
{"smiles": "N=C(N)N1CC(NCc2nnc([C@@H]3CC[C@@H]4CN3C(=O)N4OS(=O)(=O)O)o2)C1", "note": "[Compound 746, (2S,5R)-2-(5-(((1-carbamimidoylazetidin-3-yl)amino)methyl)-1,3,4-oxadiazol-2-yl)-7-oxo-1,6-diazabicyclo[3.2.1]octan-6-yl hydrogen sulfate]", "values": [{"measurement": "activity against bacterial strains that express the class D cephalosporinase OXA-15, compared with Avibactam", "setting": "[1]", "result": "more active than Avibactam"}, {"measurement": "activity and/or spectrum of activity against bacterial strains that express KPC β-lactamases, compared with Avibactam", "setting": "[2]", "result": "more active than Avibactam for at least one, bacterial strain that expresses KPC β-lactamase and/or show a better spectrum of activity"}]}
{"smiles": "N=C(N)N[C@H]1C[C@@H](c2nnc([C@@H]3CC[C@@H]4CN3C(=O)N4OS(=O)(=O)O)o2)C1", "note": "[Compound 749, (2S,5R)-2-(5-((1s,3R)-3-guanidinocyclobutyl)-1,3,4-oxadiazol-2-yl)-7-oxo-1,6-diazabicyclo[3.2.1]octan-6-yl hydrogen sulfate]", "values": [{"measurement": "activity against bacterial strains that express the class D cephalosporinase OXA-15, compared with Avibactam", "setting": "[1]", "result": "more active than Avibactam"}, {"measurement": "activity and/or spectrum of activity against bacterial strains that express KPC β-lactamases, compared with Avibactam", "setting": "[2]", "result": "more active than Avibactam for at least one, bacterial strain that expresses KPC β-lactamase and/or show a better spectrum of activity"}]}
{"smiles": "O=C1N2C[C@@H](CC[C@H]2c2nnc(C3CC4(CNC4)C3)o2)N1OS(=O)(=O)O", "note": "[Compound 750, (2S,5R)-2-(5-(2-azaspiro[3.3]heptan-6-yl)-1,3,4-oxadiazol-2-yl)-7-oxo-1,6-diazabicyclo[3.2.1]octan-6-yl hydrogen sulfate]", "values": [{"measurement": "activity against bacterial strains that express the class D cephalosporinase OXA-15, compared with Avibactam", "setting": "[1]", "result": "more active than Avibactam"}, {"measurement": "activity and/or spectrum of activity against bacterial strains that express KPC β-lactamases, compared with Avibactam", "setting": "[2]", "result": "more active than Avibactam for at least one, bacterial strain that expresses KPC β-lactamase and/or show a better spectrum of activity"}]}
{"smiles": "N[C@H]1C[C@H](Cc2nnc([C@@H]3CC[C@@H]4CN3C(=O)N4OS(=O)(=O)O)o2)C1", "note": "[Compound 751, (2S,5R)-2-(5-(((1r,3S)-3-aminocyclobutyl)methyl)-1,3,4-oxadiazol-2-yl)-7-oxo-1,6-diazabicyclo[3.2.1]octan-6-yl hydrogen sulfate]", "values": [{"measurement": "activity against bacterial strains that express the class D cephalosporinase OXA-15, compared with Avibactam", "setting": "[1]", "result": "more active than Avibactam"}, {"measurement": "activity and/or spectrum of activity against bacterial strains that express KPC β-lactamases, compared with Avibactam", "setting": "[2]", "result": "more active than Avibactam for at least one, bacterial strain that expresses KPC β-lactamase and/or show a better spectrum of activity"}]}
{"smiles": "N=C(N)NC1CC(Cc2nnc([C@@H]3CC[C@@H]4CN3C(=O)N4OS(=O)(=O)O)o2)C1", "note": "(stereo partly drawn) [Compound 752, (2S,5R)-2-(5-((3-guanidinocyclobutyl)methyl)-1,3,4-oxadiazol-2-yl)-7-oxo-1,6-diazabicyclo[3.2.1]octan-6-yl hydrogen sulfate]", "values": [{"measurement": "activity against bacterial strains that express the class D cephalosporinase OXA-15, compared with Avibactam", "setting": "[1]", "result": "more active than Avibactam"}, {"measurement": "activity and/or spectrum of activity against bacterial strains that express KPC β-lactamases, compared with Avibactam", "setting": "[2]", "result": "more active than Avibactam for at least one, bacterial strain that expresses KPC β-lactamase and/or show a better spectrum of activity"}]}
{"smiles": "N[C@H]1C[C@H](CCc2nnc([C@@H]3CC[C@@H]4CN3C(=O)N4OS(=O)(=O)O)o2)C1", "note": "[Compound 753, (2S,5R)-2-(5-(2-((1r,3R)-3-aminocyclobutyl)ethyl)-1,3,4-oxadiazol-2-yl)-7-oxo-1,6-diazabicyclo[3.2.1]octan-6-yl hydrogen sulfate]", "values": [{"measurement": "activity against bacterial strains that express the class D cephalosporinase OXA-15, compared with Avibactam", "setting": "[1]", "result": "more active than Avibactam"}, {"measurement": "activity and/or spectrum of activity against bacterial strains that express KPC β-lactamases, compared with Avibactam", "setting": "[2]", "result": "more active than Avibactam for at least one, bacterial strain that expresses KPC β-lactamase and/or show a better spectrum of activity"}]}
{"smiles": "N[C@H]1C[C@@H](CCc2nnc([C@@H]3CC[C@@H]4CN3C(=O)N4OS(=O)(=O)O)o2)C1", "note": "[Compound 754, (2S,5R)-2-(5-(2-((1s,3S)-3-aminocyclobutyl)ethyl)-1,3,4-oxadiazol-2-yl)-7-oxo-1,6-diazabicyclo[3.2.1]octan-6-yl hydrogen sulfate]", "values": [{"measurement": "activity against bacterial strains that express the class D cephalosporinase OXA-15, compared with Avibactam", "setting": "[1]", "result": "more active than Avibactam"}, {"measurement": "activity and/or spectrum of activity against bacterial strains that express KPC β-lactamases, compared with Avibactam", "setting": "[2]", "result": "more active than Avibactam for at least one, bacterial strain that expresses KPC β-lactamase and/or show a better spectrum of activity"}]}
{"smiles": "NC1CC(NCc2nnc([C@@H]3CC[C@@H]4CN3C(=O)N4OS(=O)(=O)O)o2)C1", "note": "(stereo partly drawn) [Compound 755, (2S,5R)-2-(5-(((3-aminocyclobutyl)amino)methyl)-1,3,4-oxadiazol-2-yl)-7-oxo-1,6-diazabicyclo[3.2.1]octan-6-yl hydrogen sulfate]", "values": [{"measurement": "activity against bacterial strains that express the class D cephalosporinase OXA-15, compared with Avibactam", "setting": "[1]", "result": "more active than Avibactam"}, {"measurement": "activity and/or spectrum of activity against bacterial strains that express KPC β-lactamases, compared with Avibactam", "setting": "[2]", "result": "more active than Avibactam for at least one, bacterial strain that expresses KPC β-lactamase and/or show a better spectrum of activity"}]}
{"smiles": "N[C@H]1C[C@@H](NCc2nnc([C@@H]3CC[C@@H]4CN3C(=O)N4OS(=O)(=O)O)o2)C1", "note": "[Compound 756, (2S,5R)-2-(5-((((1s,3R)-3-aminocyclobutyl)amino)methyl)-1,3,4-oxadiazol-2-yl)-7-oxo-1,6-diazabicyclo[3.2.1]octan-6-yl hydrogen sulfate]", "values": [{"measurement": "activity against bacterial strains that express the class D cephalosporinase OXA-15, compared with Avibactam", "setting": "[1]", "result": "more active than Avibactam"}, {"measurement": "activity and/or spectrum of activity against bacterial strains that express KPC β-lactamases, compared with Avibactam", "setting": "[2]", "result": "more active than Avibactam for at least one, bacterial strain that expresses KPC β-lactamase and/or show a better spectrum of activity"}]}
{"smiles": "O=C1N2C[C@@H](CC[C@H]2c2nnc([C@H]3CCNC3)o2)N1OS(=O)(=O)O", "note": "[Compound 758, (2S,5R)-7-oxo-2-(5-((S)-pyrrolidin-3-yl)-1,3,4-oxadiazol-2-yl)-1,6-diazabicyclo[3.2.1]octan-6-yl hydrogen sulfate]", "values": [{"measurement": "activity against bacterial strains that express the class D cephalosporinase OXA-15, compared with Avibactam", "setting": "[1]", "result": "more active than Avibactam"}, {"measurement": "activity and/or spectrum of activity against bacterial strains that express KPC β-lactamases, compared with Avibactam", "setting": "[2]", "result": "more active than Avibactam for at least one, bacterial strain that expresses KPC β-lactamase and/or show a better spectrum of activity"}]}
{"smiles": "O=C1N2C[C@@H](CC[C@H]2c2nnc([C@@H]3CCNC3)o2)N1OS(=O)(=O)O", "note": "[Compound 759, (2S,5R)-7-oxo-2-(5((R)-pyrrolidin-3-yl)-1,3,4-oxadiazol-2-yl)-1,6-diazabicyclo[3.2.1]octan-6-yl hydrogen sulfate]", "values": [{"measurement": "activity against bacterial strains that express the class D cephalosporinase OXA-15, compared with Avibactam", "setting": "[1]", "result": "more active than Avibactam"}, {"measurement": "activity and/or spectrum of activity against bacterial strains that express KPC β-lactamases, compared with Avibactam", "setting": "[2]", "result": "more active than Avibactam for at least one, bacterial strain that expresses KPC β-lactamase and/or show a better spectrum of activity"}]}
{"smiles": "N[C@@H]1CN[C@H](c2nnc([C@@H]3CC[C@@H]4CN3C(=O)N4OS(=O)(=O)O)o2)C1", "note": "[Compound 760, (2S,5R)-2-(5-((2S,4S)-4-aminopyrrolidin-2-yl)-1,3,4-oxadiazol-2-yl)-7-oxo-1,6-diazabicyclo[3.2.1]octan-6-yl hydrogen sulfate]", "values": [{"measurement": "activity against bacterial strains that express the class D cephalosporinase OXA-15, compared with Avibactam", "setting": "[1]", "result": "more active than Avibactam"}, {"measurement": "activity and/or spectrum of activity against bacterial strains that express KPC β-lactamases, compared with Avibactam", "setting": "[2]", "result": "more active than Avibactam for at least one, bacterial strain that expresses KPC β-lactamase and/or show a better spectrum of activity"}]}
{"smiles": "N[C@H]1CN[C@@H](c2nnc([C@@H]3CC[C@@H]4CN3C(=O)N4OS(=O)(=O)O)o2)C1", "note": "[Compound 761, (2S,5R)-2-(5-((2R,4R)-4-aminopyrrolidin-2-yl)-1,3,4-oxadiazol-2-yl)-7-oxo-1,6-diazabicyclo[3.2.1]octan-6-yl hydrogen sulfate]", "values": [{"measurement": "activity against bacterial strains that express the class D cephalosporinase OXA-15, compared with Avibactam", "setting": "[1]", "result": "more active than Avibactam"}, {"measurement": "activity and/or spectrum of activity against bacterial strains that express KPC β-lactamases, compared with Avibactam", "setting": "[2]", "result": "more active than Avibactam for at least one, bacterial strain that expresses KPC β-lactamase and/or show a better spectrum of activity"}]}
{"smiles": "N[C@H]1CN[C@H](c2nnc([C@@H]3CC[C@@H]4CN3C(=O)N4OS(=O)(=O)O)o2)C1", "note": "[Compound 762, (2S,5R)-2-(5-((2S,4R)-4-aminopyrrolidin-2-yl)-1,3,4-oxadiazol-2-yl)-7-oxo-1,6-diazabicyclo[3.2.1]octan-6-yl hydrogen sulfate]", "values": [{"measurement": "activity against bacterial strains that express the class D cephalosporinase OXA-15, compared with Avibactam", "setting": "[1]", "result": "more active than Avibactam"}, {"measurement": "activity and/or spectrum of activity against bacterial strains that express KPC β-lactamases, compared with Avibactam", "setting": "[2]", "result": "more active than Avibactam for at least one, bacterial strain that expresses KPC β-lactamase and/or show a better spectrum of activity"}]}
{"smiles": "N[C@@H]1CN[C@@H](c2nnc([C@@H]3CC[C@@H]4CN3C(=O)N4OS(=O)(=O)O)o2)C1", "note": "[Compound 763, (2S,5R)-2-(5-((2R,4S)-4-aminopyrrolidin-2-yl)-1,3,4-oxadiazol-2-yl)-7-oxo-1,6-diazabicyclo[3.2.1]octan-6-yl hydrogen sulfate]", "values": [{"measurement": "activity against bacterial strains that express the class D cephalosporinase OXA-15, compared with Avibactam", "setting": "[1]", "result": "more active than Avibactam"}, {"measurement": "activity and/or spectrum of activity against bacterial strains that express KPC β-lactamases, compared with Avibactam", "setting": "[2]", "result": "more active than Avibactam for at least one, bacterial strain that expresses KPC β-lactamase and/or show a better spectrum of activity"}]}
{"smiles": "O=C1N2C[C@@H](CC[C@H]2c2nnc(CC3CCNC3)o2)N1OS(=O)(=O)O", "note": "(stereo partly drawn) [Compound 764, (2S,5R)-7-oxo-2-(5-(pyrrolidin-3-ylmethyl)-1,3,4-oxadiazol-2-yl)-1,6-diazabicyclo[3.2.1]octan-6-yl hydrogen sulfate]", "values": [{"measurement": "activity against bacterial strains that express the class D cephalosporinase OXA-15, compared with Avibactam", "setting": "[1]", "result": "more active than Avibactam"}, {"measurement": "activity and/or spectrum of activity against bacterial strains that express KPC β-lactamases, compared with Avibactam", "setting": "[2]", "result": "more active than Avibactam for at least one, bacterial strain that expresses KPC β-lactamase and/or show a better spectrum of activity"}]}
{"smiles": "O=C1N2C[C@@H](CC[C@H]2c2nnc(CN[C@H]3CCNC3)o2)N1OS(=O)(=O)O", "note": "[Compound 765, (2S,5R)-7-oxo-2-(5-(((S)-pyrrolidin-3-ylamino)methyl)-1,3,4-oxadiazol-2-yl)-1,6-diazabicyclo[3.2.1]octan-6-yl hydrogen sulfate]", "values": [{"measurement": "activity against bacterial strains that express the class D cephalosporinase OXA-15, compared with Avibactam", "setting": "[1]", "result": "more active than Avibactam"}, {"measurement": "activity and/or spectrum of activity against bacterial strains that express KPC β-lactamases, compared with Avibactam", "setting": "[2]", "result": "more active than Avibactam for at least one, bacterial strain that expresses KPC β-lactamase and/or show a better spectrum of activity"}]}
